Laboratory results: patent US20230131192A1, “1H-PYRAZOLO[4,3-d]PYRIMIDINE COMPOUNDS AS TOLL-LIKE RECEPTOR 7 (TLR7) AGONISTS” (BRISTOL-MYERS SQUIBB COMPANY, priority 2020, published 2023)
pEC50: −log10 of the molar value.

Legend:
[1] = target: T1, human TLR7 (Homo sapiens, UniProt Q9NYK1); assay: Human TLR7 agonist (reporter) activity assay, HEK-Blue TLR7 cells, SEAP reporter; assay type: cell-based; conditions: 18 h treatment, average where assay was performed multiple times, read-out: hTLR7 Agonism EC50
T1 construct: host or cells: HEK-Blue TLR7 cells (engineered human embryonic kidney cells)
T1 sequence (Q9NYK1 27-1049): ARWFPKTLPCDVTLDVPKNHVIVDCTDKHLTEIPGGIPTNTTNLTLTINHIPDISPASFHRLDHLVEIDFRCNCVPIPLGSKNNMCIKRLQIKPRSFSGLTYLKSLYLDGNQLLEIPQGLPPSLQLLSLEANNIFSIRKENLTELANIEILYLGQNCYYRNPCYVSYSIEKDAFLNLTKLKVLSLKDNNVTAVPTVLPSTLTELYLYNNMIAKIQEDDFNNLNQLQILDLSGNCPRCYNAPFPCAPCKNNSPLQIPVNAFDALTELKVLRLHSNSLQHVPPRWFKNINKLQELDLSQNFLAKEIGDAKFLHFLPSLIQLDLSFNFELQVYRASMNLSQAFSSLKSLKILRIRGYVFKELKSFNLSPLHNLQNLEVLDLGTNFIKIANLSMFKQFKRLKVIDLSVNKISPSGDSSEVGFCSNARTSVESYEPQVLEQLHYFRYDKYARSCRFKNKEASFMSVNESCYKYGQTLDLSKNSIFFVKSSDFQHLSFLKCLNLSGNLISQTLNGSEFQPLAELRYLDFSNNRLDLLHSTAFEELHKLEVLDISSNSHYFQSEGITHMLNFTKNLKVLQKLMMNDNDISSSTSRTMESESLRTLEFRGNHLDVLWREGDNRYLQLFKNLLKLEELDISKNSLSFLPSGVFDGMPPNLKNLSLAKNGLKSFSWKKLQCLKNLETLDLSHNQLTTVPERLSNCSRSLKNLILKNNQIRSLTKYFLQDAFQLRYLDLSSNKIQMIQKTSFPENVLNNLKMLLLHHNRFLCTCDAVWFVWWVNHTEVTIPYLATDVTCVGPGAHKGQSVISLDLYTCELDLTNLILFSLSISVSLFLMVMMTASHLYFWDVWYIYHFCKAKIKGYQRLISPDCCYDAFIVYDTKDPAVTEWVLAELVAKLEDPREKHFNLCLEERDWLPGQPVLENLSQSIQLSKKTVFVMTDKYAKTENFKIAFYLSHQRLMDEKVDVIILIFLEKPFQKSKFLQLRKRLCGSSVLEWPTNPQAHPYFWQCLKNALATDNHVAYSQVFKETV
Protocol: This procedure describes a method for assaying human TLR7 (hTLR7) agonist activity of the compounds disclosed in this specification.
HEK-Blue™ TLR7 cells were added to each well of a 384-well tissue-culture plate (15,000 cells per well) and incubated 16-18 h at 37° C., 5% CO2. Compounds (100 nl) were dispensed into wells containing the HEK-Blue™ TLR cells and the treated cells were incubated at 37° C., 5% CO2. After 18 h treatment ten microliters of freshly-prepared Quanti-Blue™ reagent (Invivogen) was added to each well, incubated for 30 min (37° C., 5% CO2) and SEAP levels measured using an Envision plate reader (OD=620 nm). The half maximal effective concentration values (EC50; compound concentration which induced a response halfway between the assay baseline and maximum) were calculated.

[2] = tested on: CD69; assay: Induction of CD69 in human whole blood; assay type: cell-based; conditions: 17 hrs, CD69 surface staining, 100% set to 1 uM of resiquimod, average where assay was performed multiple times, read-out: hWB CD69 EC50
Protocol: The induction of Type I interferon (IFN) MX-1 genes and the B-cell activation marker CD69 are downstream events that occur upon activation of the TLR7 pathway. The following is a human whole blood assay that measures their induction in response to a TLR7 agonist.
Heparinized human whole blood was harvested from human subjects and treated with test TLR7 agonist compounds at 1 mM. The blood was diluted with RPMI 1640 media and Echo was used to predot 10 nL per well giving a final concentration of 1 uM (10 nL in 10 uL of blood). After mixing on a shaker for 30 sec, the plates were covered and placed in a 37° C. chamber for o/n=17 hrs. Fixing/lysis buffer was prepared (5×→1× in H2O, warm at 37° C.; Cat # BD 558049) and kept the perm buffer (on ice) for later use.
For surface markers staining (CD69): prepared surface Abs: 0.045 ul hCD14-FITC (ThermoFisher Cat # MHCD1401)+0.6 ul hCD19-ef450 (ThermoFisher Cat #48-0198-42)+1.5 ul hCD69-PE (cat # BD555531)+0.855 ul FACS buffer. Added 3 ul/well, spin1000 rpm for 1 min and mixed on shaker for 30 sec, put on ice for 30 mins. Stop stimulation after 30 minutes with 70 uL of prewarmed 1× fix/lysis buffer and use Feliex mate to resuspend (15 times, change tips for each plate) and incubate at 37 C for 10 minutes.
Centrifuge at 2000 rpm for 5 minutes aspirate with HCS plate washer, mix on shaker for 30 sec and then wash with 70 uL in dPBS and pelleted 2×s (2000 rpm for 5 min) and 50 ul wash in FACS buffer pelleted 1×s(2000 rpm for 5 min). Mix on shaker for 30 sec. For Intracellular markers staining (MX-1): Add 50 ul of BD Perm buffer III and mix on shaker for 30 sec. Incubate on ice for 30 minutes (in the dark). Wash with 50 uL of FACS buffer 2× (spin @2300 rpm×5 min after perm) followed by mixing on shaker for 30 sec. Resuspended in 20 ul of FACS buffer containing MX1 antibody ( )(4812)-Alexa 647: Novus Biologicals #NBP2-43704AF647) 20 ul FACS bf+0.8 ul hlgG+0.04 ul MX-1. Spin 1000 rpm for 1 min, mix on shaker for 30se and the samples were incubated at RT in the dark for 45 minutes followed by washing 2×FACS buffer (spin @2300 rpm×5 min after perm). Resuspend 20 ul (35 uL total per well) of FACS buffer and cover with foil and place in 4° C. to read the following day. Plates were read on iQuePlus. The results were loaded into toolset and […] curves are generated in curve master. The y-axis 100% is set to 1 uM of resiquimod.

Row | SMILES | pEC50 [1] | pEC50 [2]
1 | COc1cc(CO)ccc1Cn1ncc2nc(N)nc(NCc3cc(C)on3)c21 [Compound 101, {4-[(5-amino-7-{[(5-methyl-1,2-oxazol-3-yl)methyl]amino}-1H-pyrazolo[4,3-d]pyrimidin-1-yl)methyl]-3-methoxyphenyl}methanol] | 6.45 | 6.33
2 | COc1cc(CNC2CCC2)ccc1Cn1ncc2nc(N)nc(NCc3cc(C)on3)c21 [Compound 102, 1-({4-[(cyclobutylamino)methyl]-2-methoxyphenyl}methyl)-N7-[(5-methyl-1,2-oxazol-3-yl)methyl]-1H-pyrazolo[4,3-d]pyrimidine-5,7-diamine] | 7.13 | 7.59
3 | COc1cc(CNC2CCOCC2)ccc1Cn1ncc2nc(N)nc(NCc3cc(C)on3)c21 [Compound 103, 1-[(2-methoxy-4-{[(oxan-4-yl)amino]methyl}phenyl)methyl]-N7-[(5-methyl-1,2-oxazol-3-yl)methyl]-1H-pyrazolo[4,3-d]pyrimidine-5,7-diamine] | 7.24 | 8.27
4 | COc1cc(CN2CCN(C)CC2)ccc1Cn1ncc2nc(N)nc(NCc3cc(C)on3)c21 [Compound 104, 1-({2-methoxy-4-[(4-methylpiperazin-1-yl)methyl]phenyl}methyl)-N7-[(5-methyl-1,2-oxazol-3-yl)methyl]-1H-pyrazolo[4,3-d]pyrimidine-5,7-diamine] | 7.91 | 8.44
5 | COc1cc(CN2CCN(CCO)CC2)ccc1Cn1ncc2nc(N)nc(NCc3cc(C)on3)c21 [Compound 105, 2-[4-({4-[(5-amino-7-{[(5-methyl-1,2-oxazol-3-yl)methyl]amino}-1H-pyrazolo[4,3-d]pyrimidin-1-yl)methyl]-3-methoxyphenyl}methyl)piperazin-1-yl]ethan-1-ol] | 7.63 | –
6 | COc1cc(CN2CC(OC)C2)ccc1Cn1ncc2nc(N)nc(NCc3cc(C)on3)c21 [Compound 106, 1-({2-methoxy-4-[(3-methoxyazetidin-1-yl)methyl]phenyl}methyl)-N7-[(5-methyl-1,2-oxazol-3-yl)methyl]-1H-pyrazolo[4,3-d]pyrimidine-5,7-diamine] | 7.24 | 8.02
7 | COc1cc(CNC2CCC2)ccc1Cn1ncc2nc(N)nc(NCc3noc(C)n3)c21 [Compound 107, 1-({4-[(cyclobutylamino)methyl]-2-methoxyphenyl}methyl)-N7-[(5-methyl-1,2,4-oxadiazol-3-yl)methyl]-1H-pyrazolo[4,3-d]pyrimidine-5,7-diamine] | 7.33 | 8.23
8 | COc1cc(CNC2CCOCC2)ccc1Cn1ncc2nc(N)nc(N[C@H](CO)CC3CC3)c21 [Compound 108, (2S)-2-({5-amino-1-[(2-methoxy-4-{[(oxan-4-yl)amino]methyl}phenyl)methyl]-1H-pyrazolo[4,3-d]pyrimidin-7-yl}amino)-3-cyclopropylpropan-1-ol] | 6.47 | 6.92
9 | COc1cc(CNC2CCOCC2)ccc1Cn1ncc2nc(N)nc(NCC[C@H](O)C3CC3)c21 [Compound 109A, (1S)-3-({5-amino-1-[(2-methoxy-4-{[(oxan-4-yl)amino]methyl}phenyl)methyl]-1H-pyrazolo[4,3-d]pyrimidin-7-yl}amino)-1-cyclopropylpropan-1-ol] | 6.47 | 7.12
10 | COc1cc(CNC2CCOCC2)ccc1Cn1ncc2nc(N)nc(NCC[C@@H](O)C3CC3)c21 [Compound 109b, (1R)-3-({5-amino-1-[(2-methoxy-4-{[(oxan-4-yl)amino]methyl}phenyl)methyl]-1H-pyrazolo[4,3-d]pyrimidin-7-yl}amino)-1-cyclopropylpropan-1-ol] | 5.88 | 6.79
11 | COc1cc(CN2CCN(S(C)(=O)=O)CC2)ccc1Cn1ncc2nc(N)nc(NCc3cc(C)on3)c21 [Compound 110, 1-({4-[(4-methanesulfonylpiperazin-1-yl)methyl]-2-methoxyphenyl}methyl)-N7-[(5-methyl-1,2-oxazol-3-yl)methyl]-1H-pyrazolo[4,3-d]pyrimidine-5,7-diamine] | 6.31 | 6.36
12 | COc1cc(CN2CCC(S(C)(=O)=O)CC2)ccc1Cn1ncc2nc(N)nc(NCc3cc(C)on3)c21 [Compound 111] | 6.75 | 7.23
13 | COc1cc(CNC2CCOCC2)ccc1Cn1nc(C)c2nc(N)nc(NCc3cc(C)on3)c21 [Compound 112, 1-[(2-methoxy-4-{[(oxan-4-yl)amino]methyl}phenyl)methyl]-3-methyl-N7-[(5-methyl-1,2-oxazol-3-yl)methyl]-1H-pyrazolo[4,3-d]pyrimidine-5,7-diamine] | 7.02 | 7.99
14 | COc1cc(CO)ccc1Cn1ncc2nc(N)nc(NCc3noc(C)n3)c21 [Compound 116, {4-[(5-amino-7-{[(5-methyl-1,2,4-oxadiazol-3-yl)methyl]amino}-1H-pyrazolo[4,3-d]pyrimidin-1-yl)methyl]-3-methoxyphenyl}methanol] | 6.14 | –
15 | COc1cc(CN2CCN(CCO)CC2)ccc1Cn1nc(C)c2nc(N)nc(NCc3noc(C)n3)c21 [Compound 132, 2-[4-({4-[(5-amino-3-methyl-7-{[(5-methyl-1,2,4-oxadiazol-3-yl)methyl]amino}-1H-pyrazolo[4,3-d]pyrimidin-1-yl)methyl]-3-methoxyphenyl}methyl)piperazin-1-yl]ethan-1-ol] | 6.37 | –
16 | COc1cc(CNC2CCOCC2)ccc1Cn1nc(C)c2nc(N)nc(NCc3noc(C)n3)c21 [Compound 133, 1-[(2-methoxy-4-{[(oxan-4-yl)amino]methyl}phenyl)methyl]-3-methyl-N7-[(5-methyl-1,2,4-oxadiazol-3-yl)methyl]-1H-pyrazolo[4,3-d]pyrimidine-5,7-diamine] | 5.95 | –
17 | COc1cc(CN2CCN(C)CC2)ccc1Cn1nc(C)c2nc(N)nc(NCc3noc(C)n3)c21 [Compound 134, 1-({2-methoxy-4-[(4-methylpiperazin-1-yl)methyl]phenyl}methyl)-3-methyl-N7-[(5-methyl-1,2,4-oxadiazol-3-yl)methyl]-1H-pyrazolo[4,3-d]pyrimidine-5,7-diamine] | 6.80 | –
